Values belong to the substance of their own block, whether it stands above or below them.
Legend:
PP2Ac protein = PP2Ac protein (Homo sapiens, UniProt P67775); test: Binding assay on cellulose-bound overlapping SET peptides incubated with PP2A protein; conditions: six overlapping dodecapeptides, anti-PP2Ac antibody, ECL detection
Experimental: (§1) FIG. 1A and 1B show determination of the binding site of PP2A to SET and vice versa. A) Overlapping dodecapeptides with two amino acid shift covering the whole PP2A protein were bound to a solid support. The membrane was incubated sequentially with SET protein, and anti-SET antibody, followed by a peroxidase-labeled secondary antibody. […] The sequence corresponding to the identified spots is shown. B) Overlapping dodecapeptides with two amino acid shift covering the whole human SET protein were bound to a solid support. The membrane was incubated sequentially with PP2A protein, and anti-PP2A antibody, followed by a peroxidase-labeled secondary antibody. […] The sequence corresponding to the identified spots is shown.
(§2) Overlapping peptides covering the whole human PP2Ac or SET sequence were prepared by automated spot synthesis (Abimed, Langerfeld, Germany) onto an amino-derived cellulose membrane, as described (Frank and Overwin, 1996; Gausepohl et al. 1992). The membranes were blocked, incubated with purified recombinant SET or PP2A protein, after several washing steps, incubated with anti-SET2 (Bethyl Laboratories) or anti-PP2Ac antibody (Santa Cruz), and followed by PO-conjugated secondary antibody. Protein interactions were visualized using ECL system (Pierce). […]

SET protein = SET protein (Homo sapiens, UniProt Q01105); test: Binding assay on cellulose-bound overlapping PP2Ac peptides incubated with SET protein; conditions: four overlapping dodecapeptides, anti-SET antibody, ECL detection
Experimental: as §1, §2

Daudi cell line = test: Detection of apoptosis by Annexin-V-FITC staining, Daudi; format: cell-based, Human; conditions: Daudi cells, peptide 100 μM for 24 h, compared to control non treated cells
Experimental: (§3) Daudi, Raji and Jok 1 cell lines were cultured in the presence or in the absence (control) of the Mut3DPT-PP2A peptide at a concentration of 100 μM for 24 h. Apoptosis was detected by Annexin V-FITC staining and analyzed by flow cytometry. Mut3-DPT-PP2A is VKKKKIKAEIKI-ETVTLLVALKVRYRERIT (SEQ ID NO: 32).
(§4) Human B lymphoblast Daudi cell line, human lymphoblast-like Raji cell line and a Hairy cell leukemia-derived cell line Jok1 were cultured in DMEM (Gibco Life technologies) medium supplemented with 10% FCS.
(§5) Apopotic cells were detected using Annexin-V (-FITC from BD biosciences) as described above.
(§6) The effect of Mut3DPT-PP2Ac peptide treatment was compared to untreated cells. The peptides were used at 100 μM for 24 h.

Raji cell line = test: Detection of apoptosis by Annexin-V-FITC staining, Raji; format: cell-based, Human; conditions: Raji cells, peptide 100 μM for 24 h, compared to control non treated cells
Experimental: as §3, §4, §5, §6

H1975 cell line = test: Detection of apoptosis by Annexin-V-FITC staining, H1975; format: cell-based, Human; conditions: H1975 cells, peptide 100 μM for 24 h, compared to control non treated cells
Experimental: (§7) H1975 and H1299 cell lines were cultured in the presence or in the absence (control) of the Mut3DPT-PP2Ac peptide at a concentration of 100 μM for 24 h. Apoptosis was detected by Annexin V-FITC staining and analyzed by flow cytometry. Mut3-DPT-PP2A is VKKKKIKAEIKI-ETVTLLVALKVRYRERIT (SEQ ID NO: 32).
(§8) Human non small cell lung carcinoma cell lines H1975 and H1299, as well as breast cancer cell line MDA-MB231 were cultured in DMEM (Gibco Life technologies) medium supplemented with 10% FCS.
(§9) Apopotic cells were detected using Annexin-V (-FITC from BD biosciences) as described by the manufacturer. Briefly, the cells were washed in lx binding buffer, centrifugated and then resuspended in 200 μL of 1× binding buffer containing Annexin V-FITC and propidium iodide (PI). After incubation at room temperature in the dark for 10 min, cells were analyzed with FACS Calibur cytofluometer (BD Biosciences).
(§10) The effect of peptides treatment was compared to untreated cells. The peptides were used at 100 μM for 24 h.

H1299 cell line = test: Detection of apoptosis by Annexin-V-FITC staining, H1299; format: cell-based, Human; conditions: H1299 cells, peptide 100 μM for 24 h, compared to control non treated cells
Experimental: as §7, §8, §9, §10

Jok1 cell line = test: Detection of apoptosis by Annexin-V-FITC staining, Jok1; format: cell-based, Human; conditions: Jok1 cells, peptide 100 μM for 24 h, compared to control non treated cells
Experimental: as §3, §4, §5, §6

MDA-MB231 cell line = test: Detection of apoptosis by Annexin-V-FITC staining, MDA-MB231; format: cell-based, Human; conditions: MDA-MB231 cells, peptide 100 μM for 24 h, compared to control non treated cells
Experimental: MDA-MB231 cell line was cultured in the presence or in the absence (control) of the Mut3DPT-SET peptide at a concentration of 100 μM for 24 h. Apoptosis was detected by Annexin V-FITC staining and analyzed by flow cytometry. Mut3-DPT-SET is VKKKKIKAEIKI-[…] (SEQ ID NO: 33).
as §8, §9, §10

PP2Ac protein, sequence (P67775 whole entry): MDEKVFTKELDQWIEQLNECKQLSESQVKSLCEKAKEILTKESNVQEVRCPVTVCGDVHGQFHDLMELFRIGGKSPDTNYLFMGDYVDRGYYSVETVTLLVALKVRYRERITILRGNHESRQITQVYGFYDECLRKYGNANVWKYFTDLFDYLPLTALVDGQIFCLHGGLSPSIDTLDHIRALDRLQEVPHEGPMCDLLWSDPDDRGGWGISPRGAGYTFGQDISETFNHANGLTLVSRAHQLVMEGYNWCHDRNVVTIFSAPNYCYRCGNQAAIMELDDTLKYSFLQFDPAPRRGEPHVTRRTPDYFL
SET protein, sequence (Q01105 1-277 isoform Q01105-2): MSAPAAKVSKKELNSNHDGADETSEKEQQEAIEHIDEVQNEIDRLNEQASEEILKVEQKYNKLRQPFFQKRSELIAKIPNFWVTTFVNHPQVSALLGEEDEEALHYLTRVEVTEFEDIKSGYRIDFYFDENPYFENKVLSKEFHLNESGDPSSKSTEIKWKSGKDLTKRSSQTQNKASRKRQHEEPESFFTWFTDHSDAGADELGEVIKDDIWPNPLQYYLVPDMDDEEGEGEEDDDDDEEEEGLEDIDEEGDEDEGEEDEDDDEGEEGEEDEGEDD

binding of PP2Ac protein to cellulose-bound SET sequence (PP2Ac protein): bound by PP2Ac protein
Substance: PSSKSTEIKWKSGKDLTKRSSQ (Synthetic peptide SET) [SEQ ID NO: 2]

binding of SET protein to cellulose-bound PP2Ac sequence (SET protein): bound by SET protein
Substance: ETVTLLVALKVRYRERIT (Synthetic peptide PP2Ac) [SEQ ID NO: 1]

Substance: VKKKKIKAEIKI-ETVTLLVALKVRYRERIT (VKKKKIKAEIKIETVTLLVALKVRYRERIT) [Mut3DPT-PP2Ac]
apoptosis (Annexin V-FITC staining, flow cytometry) (Daudi cell line): has an apoptotic effect
apoptosis (Annexin V-FITC staining, flow cytometry) (Raji cell line): has an apoptotic effect
apoptosis (Annexin V-FITC staining, flow cytometry) (H1975 cell line): has apoptotic effect
apoptosis (Annexin V-FITC staining, flow cytometry) (H1299 cell line): has apoptotic effect
apoptosis (Annexin V-FITC staining, flow cytometry) (Jok1 cell line): has an apoptotic effect

Substance: VKKKKIKAEIKI-PSSKSTEIKWKSGKDLTKRSSQ (VKKKKIKAEIKIPSSKSTEIKWKSGKDLTKRSSQ) [Mut3DPT-SET]
apoptosis (Annexin V-FITC staining, flow cytometry) (MDA-MB231 cell line): slight apoptosis increase
